Columns and labels:
[1] = test system: Diabrotica balteata; assay: Diabrotica balteata spray test; type: in vivo; conditions: 168 h, beetle larvae on wheat, after 7 days, read-out: efficacy (wheat plant growth); for pest or weed control at 100 g/ha: 100 g/ha (=32 μg/cavity); for pest or weed control at 500 g/ha: 500 g/ha (=160 μg/cavity)
Procedure: Diabrotica balteata—Spray Test Solvent: 78 parts by weight of acetone • • 1.5 parts by weight of dimethylformamide Emulsifier: alkylaryl polyglycol ether
(§1) To produce a suitable active compound formulation, 1 part by weight of active compound is dissolved using the stated parts by weight of solvent and made up with water containing an emulsifier concentration of 1000 ppm until the desired concentration is attained. To produce further test concentrations, the formulation is diluted with emulsifier-containing water.
Pre-swollen wheat grains (Triticum aestivum) are incubated in a multiwell plate filled with agar and a little water for one day (5 seed grains per cavity). The germinated wheat grains are sprayed with an active compound formulation of the desired concentration. Subsequently, each cavity is infected with 10-20 beetle larvae of Diabrotica balteata.
After 7 days, the efficacy in % is determined. 100% means that all wheat plants have grown as in the untreated, uninfected control; 0% means that no wheat plant has grown.

[2] = test system: Spodoptera frugiperda; assay: Spodoptera frugiperda spray test; type: in vivo; conditions: foliar, 168 h, 100 g/ha, maize leaf discs, after 7 days, read-out: efficacy (caterpillars killed)
Procedure: Spodoptera frugiperda—Spray Test Solvent: 78.0 parts by weight of acetone • • 1.5 parts by weight of dimethylformamide Emulsifier: alkylaryl polyglycol ether
as §1
Leaf discs of maize (Zea mays) are sprayed with an active compound formulation of the desired concentration and, after drying, populated with caterpillars of the fall armyworm (Spodoptera frugiperda).
After 7 days, the efficacy in % is determined. 100% means that all the caterpillars have been killed; 0% means that no caterpillar has been killed.

SMILES	pest or weed control at 100 g/ha [2]	further results
CON(C)c1nc(-c2ccc(NC(=O)N=C3SCC(=O)N3c3ccccc3C(C)C)cc2)nn1-c1ccc(OC(F)(F)F)cc1 [Compound I-046]	100%	pest or weed control at 100 g/ha [1]: 100%; pest or weed control at 500 g/ha [1]: 100%
COCCCNc1nc(-c2ccc(C=NNC(=S)Nc3ccccc3C(C)C)cc2)nn1-c1ccc(OC(F)(F)F)cc1 [Compound I-073]	100%	pest or weed control at 100 g/ha [1]: 100%
CC(C)c1ccccc1N1C(=O)CSC1=NN=Cc1ccc(-c2nc(NCCO)n(-c3ccc(OC(F)(F)C(F)(F)F)cc3)n2)cc1 [Compound I-138]	100%	
CNc1nc(-c2ccc(C=NNC(=S)Nc3ccccc3C(C)C)cc2C#N)nn1-c1ccc(OC(F)(F)F)cc1 [Compound I-123]	100%	pest or weed control at 100 g/ha [1]: 100%
CCOCCNc1nc(-c2ccc(NC(=O)N=C3SCC(=O)N3c3ccccc3C(C)C)cc2)nn1-c1ccc(OC(F)(F)F)cc1 [Compound I-044]	100%	pest or weed control at 100 g/ha [1]: 80%; pest or weed control at 500 g/ha [1]: 80%
CNc1nc(-c2ccc(C=NN=C3SCCN3c3ccccc3C(C)C)cc2)nn1-c1ccc(OC(F)(F)F)cc1 [Compound I-091]	83%	pest or weed control at 100 g/ha [1]: 100%
COCCNc1nc(-c2ccc(NC(=O)N=C3SCC(=O)N3c3ccccc3C(C)C)cc2)nn1-c1ccc(OC(F)(F)F)cc1 [Compound I-080]	100%	pest or weed control at 100 g/ha [1]: 100%
CC(C)c1ccccc1N1C(=O)CSC1=NC(=O)Nc1ccc(-c2nc(NC(=O)C(F)F)n(-c3ccc(OC(F)(F)F)cc3)n2)cc1 [Compound I-038]	100%	pest or weed control at 100 g/ha [1]: 80%; pest or weed control at 500 g/ha [1]: 100%
CNc1nc(-c2ccc(C=NNC(=S)Nc3ccccc3C(C)C)cc2C)nn1-c1ccc(OC(F)(F)F)cc1 [Compound I-119]	100%	pest or weed control at 100 g/ha [1]: 100%
CNc1nc(-c2ccc(C=NNC(=S)Nc3cc(C)ccc3C(C)C)cc2)nn1-c1ccc(OC(F)(F)F)cc1 [Compound I-070]	100%	pest or weed control at 100 g/ha [1]: 100%
CC(C)c1ccccc1NC(=S)NN=Cc1ccc(-c2nc(N3CCOCC3)n(-c3ccc(OC(F)(F)F)cc3)n2)cc1 [Compound I-019]	100%	pest or weed control at 125 g/ha ([1]; 125 g/ha (=40 μg/cavity)): 100%; pest or weed control at 500 g/ha [1]: 100%
CCNc1nc(-c2ccc(NC(=O)N=C3SCC(=O)N3c3ccccc3C(C)C)cc2)nn1-c1ccc(OC(F)(F)F)cc1 [Compound I-042]	100%	pest or weed control at 100 g/ha [1]: 100%
CNc1nc(-c2ccc(C=NN=C3SCC(=O)N3c3ccccc3C(C)C)cc2F)nn1-c1ccc(OC(F)(F)F)cc1 [Compound I-110]	100%	pest or weed control at 100 g/ha [1]: 100%
CC(C)c1ccccc1NC(=S)NN=Cc1ccc(-c2nc(NCCC#N)n(-c3ccc(OC(F)(F)F)cc3)n2)cc1 [Compound I-094]	100%	pest or weed control at 100 g/ha [1]: 100%
CC(=O)Nc1cc(-c2ccc(C=NN=C3SCC(=O)N3c3ccccc3C(C)C)cc2)nn1-c1ccc(OC(F)(F)F)cc1 [Compound I-039]	100%	pest or weed control at 100 g/ha [1]: 80%
COc1ccc(C(C)C)c(NC(=S)NN=Cc2ccc(-c3nc(NCCC#N)n(-c4ccc(OC(F)(F)C(F)(F)F)cc4)n3)cc2)c1 [Compound I-137]	100%	
CCOCCNc1nc(-c2ccc(C=NN=C3SCC(=O)N3c3ccccc3C(C)C)cc2)nn1-c1ccc(OC(F)(F)F)cc1 [Compound I-059]	100%	
CNc1nc(-c2ccc(C=NN=C3SCC(=O)N3c3ccccc3C(C)C)c(Cl)c2)nn1-c1ccc(OC(F)(F)F)cc1 [Compound I-115]	100%	
COCCCNc1nc(-c2ccc(C=NN=C3SCC(=O)N3c3ccccc3C(C)C)cc2)nn1-c1ccc(OC(F)(F)F)cc1 [Compound I-077]	100%	
COc1ccc(C(C)C)c(NC(=S)NN=Cc2ccc(-c3nc(NCCO)n(-c4ccc(OC(F)(F)C(F)(F)F)cc4)n3)cc2)c1 [Compound I-134]	100%	
COCCNc1nc(-c2ccc(NC(=O)N=C3SCC(=O)N3c3cc(OC)ccc3C(C)C)cc2)nn1-c1ccc(OC(F)(F)C(F)(F)F)cc1 [Compound I-131]	100%	
COCCNc1nc(-c2ccc(C=NN=C3SCC(=O)N3c3ccccc3C(C)C)cc2)nn1-c1ccc(OC(F)(F)F)cc1 [Compound I-076]	100%	
COCCNc1nc(-c2ccc(C=NN=C3SCC(=O)N3c3cc(OC)ccc3C(C)C)cc2)nn1-c1ccc(OC(F)(F)C(F)(F)F)cc1 [Compound I-130]	100%	

SMILES	pest or weed control at 100 g/ha [2]	further results
CC(C)c1ccccc1N1C(=O)CSC1=NN=Cc1ccc(-c2nc(NCCC#N)n(-c3ccc(OC(F)(F)C(F)(F)F)cc3)n2)cc1 [Compound I-141]	100%	
COc1ccc(C(C)C)c(N2C(=O)CSC2=NN=Cc2ccc(-c3nc(NCCO)n(-c4ccc(OC(F)(F)C(F)(F)F)cc4)n3)cc2)c1 [Compound I-139]	100%	
CC(C)c1ccccc1N1C(=O)CSC1=NN=Cc1ccc(-c2nc(NC3CCOC3)n(-c3ccc(OC(F)(F)F)cc3)n2)cc1 (stereo not shown) [Compound I-069]	100%	
COCCNc1nc(-c2ccc(NC(=O)N=C3SCC(=O)N3c3ccccc3C(C)C)cc2)nn1-c1ccc(OC(F)(F)C(F)(F)F)cc1 [Compound I-128]	100%	
CC(C)c1ccccc1N1C(=O)CSC1=NC(=O)Nc1ccc(-c2nc(-n3ccnc3)n(-c3ccc(OC(F)(F)F)cc3)n2)cc1 [Compound I-031]	100%	
COc1ccc(C(C)C)c(N2C(=O)CSC2=NC(=O)Nc2ccc(-c3nc(NCCC#N)n(-c4ccc(OC(F)(F)C(F)(F)F)cc4)n3)cc2)c1 [Compound I-140]	100%	
COc1ccc(C(C)C)c(N2C(=O)CSC2=NN=Cc2ccc(-c3nc(NCCC#N)n(-c4ccc(OC(F)(F)C(F)(F)F)cc4)n3)cc2)c1 [Compound I-142]	100%	
CC(C)c1ccccc1NC(=S)NN=Cc1ccc(-c2nc(NS(=O)(=O)C(F)F)n(-c3ccc(OC(F)(F)F)cc3)n2)cc1 [Compound I-028]	83%	
COCCNc1nc(-c2ccc(C=NN=C3SCC(=O)N3c3ccccc3C(C)C)cc2)nn1-c1ccc(OC(F)(F)C(F)(F)F)cc1 [Compound I-129]	100%	
COCCCNc1nc(-c2ccc(NC(=O)N=C3SCC(=O)N3c3ccccc3C(C)C)cc2)nn1-c1ccc(OC(F)(F)F)cc1 [Compound I-081]	100%	
CC(C)c1ccccc1N1C(=O)CSC1=NN=Cc1ccc(-c2nc(NCCC#N)n(-c3ccc(OC(F)(F)F)cc3)n2)cc1 [Compound I-092]	100%	
CC(=O)Nc1nc(-c2ccc(C=NNC(=S)Nc3c(C)cccc3C)cc2)nn1-c1ccc(OC(F)(F)F)cc1 [Compound I-011]	100%	
CCOC(CNc1nc(-c2ccc(C=NNC(=S)Nc3ccccc3C(C)C)cc2)nn1-c1ccc(OC(F)(F)F)cc1)OCC [Compound I-074]	100%	
CC(C)c1ccccc1N1C(=O)CSC1=NN=Cc1ccc(-c2nc(NC3CSC3)n(-c3ccc(OC(F)(F)C(F)(F)F)cc3)n2)cc1 [Compound I-101]	83%	
CC(C)c1ccccc1NC(=S)NN=Cc1ccc(-c2nc(NCCC#N)n(-c3ccc(OC(F)(F)C(F)(F)F)cc3)n2)cc1 [Compound I-136]	100%	
CNc1nc(-c2ccc(C=NN=C3SCC(=O)N3c3ccccc3C(C)C)cc2C)nn1-c1ccc(OC(F)(F)F)cc1 [Compound I-121]	100%	
COCCNc1nc(-c2ccc(C=NNC(=S)Nc3ccccc3C(C)C)cc2)nn1-c1ccc(OC(F)(F)C(F)(F)F)cc1 [Compound I-132]	100%	
CC(C)c1ccccc1N1C(=O)CSC1=NN=Cc1ccc(-c2nc(NCCO)n(-c3ccc(OC(F)(F)F)cc3)n2)cc1 [Compound I-089]	100%	
CC(C)c1ccccc1N1C(=O)CSC1=NN=Cc1ccc(-c2nc(NC3COC3)n(-c3ccc(OC(F)(F)F)cc3)n2)cc1 [Compound I-053]	100%	
CC(C)c1ccccc1NC(=S)NN=Cc1ccc(-c2nc(NCCO)n(-c3ccc(OC(F)(F)C(F)(F)F)cc3)n2)cc1 [Compound I-135]	100%	
COCCNc1nc(-c2ccc(C=NNC(=S)Nc3cc(OC)ccc3C(C)C)cc2)nn1-c1ccc(OC(F)(F)C(F)(F)F)cc1 [Compound I-133]	100%	
CC(C)c1ccccc1NC(=S)NN=Cc1ccc(-c2nc(NCCO)n(-c3ccc(OC(F)(F)F)cc3)n2)cc1 [Compound I-078]	100%	
CNc1nc(-c2ccc(NC(=O)N=C3SCC(=O)N3c3ccccc3C(C)C)cc2)nn1-c1ccc(OC(F)(F)F)cc1 [Compound I-026]		pest or weed control at 500 g/ha [1]: 80%

— US20220289691A1, “5-AMINO-SUBSTITUTED PYRAZOLES AND TRIAZOLES AS PEST CONTROL AGENTS” (Bayer Aktiengesellschaft, priority 2019, published 2022)
